Assay: LD50, oral dosing of mice or rabbits
Details: in vivo
Excerpt: LD50 means a lethal dose (mg/kg) necessary to kill more than half of examined mice or rabbits when the mice or rabbits are orally dosed with a certain concentration. Safety improves as LD50 increases.
As is clear from Table 11, an aqueous ink composition of the present invention is 5 to 8 times more safe than a conventional aqueous ink composition. Therefore, to maintain this standard of safety, triethanolamine used in the present invention is limited to triethanolamine meeting the standards described in the present specification and the Japanese Standards of Cosmetic Ingredient (Yakuji Nippo, Ltd., second edition).

CCN(CC)N=O [Diethyl nitrosamine, diethyl nitrosamine]
LD50: 15 mg/kg

From patent publication US5522922A, “Aqueous ink composition” (priority 1993, dated 1996)
